Experimental data taken from patent publication US20260206755A1, “COMPOUNDS AND COMPOSITIONS HAVING KNOCK-DOWN OR BLOOD FEED INHIBITION ACTIVITY AGAINST INSECT PESTS” (priority 2017, published 2026).
Where two headings read alike, the source gives them in different places.

Tested on: Anopheles stephensi
Test: Anopheles stephensi treated well plate contact test: knockdown and mortality
Format: in vivo
Conditions: for mortality at 0.2 ppm / pest or weed control at 0.2 ppm / mortality at 2 ppm / pest or weed control at 2 ppm / mortality at 20 ppm / pest or weed control at 20 ppm / mortality at 200 ppm / pest or weed control at 200 ppm: Anopheles stephensi; for mortality at 0.2 ppm / pest or weed control at 0.2 ppm / mortality at 2 ppm / pest or weed control at 2 ppm / mortality at 20 ppm / pest or weed control at 20 ppm / mortality at 200 ppm / pest or weed control at 200 ppm / mortality % 24, without TFNA-AM / mortality % 48, without TFNA-AM / Knock Down, without TFNA-AM: without TFNA-AM; for pest or weed control at 0.2 ppm / pest or weed control at 2 ppm / pest or weed control at 20 ppm / pest or weed control at 200 ppm / Knock Down, with TFNA-AM / Knock Down, without TFNA-AM: knockdown after 1 hour; for pest or weed control at 0.2 ppm / pest or weed control at 2 ppm / pest or weed control at 20 ppm / pest or weed control at 200 ppm: read-out: Knock Down, without TFNA-AM
Procedure, shortened: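 Well surfaces coated with ethanol solution of compound at a defined concentration, alone or with 2 ppm TFNA-AM, then dried. Five non-blood-fed 2–5-day-old adult females per well, fed 10% sucrose; knockdown scored at 1 hour, mortality at 24 and 48 hours, replicate means reported.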

[1] = test compound 0.2 ppm, after 24 hours, read-out: mortality % 24, without TFNA-AM
[2] = test compound 0.2 ppm, after 48 hours, read-out: mortality % 48, without TFNA-AM
[3] = test compound 2 ppm, after 24 hours, read-out: mortality % 24, without TFNA-AM
[4] = test compound 2 ppm, after 48 hours, read-out: mortality % 48, without TFNA-AM
[5] = test compound 20 ppm, after 24 hours, read-out: mortality % 24, without TFNA-AM
[6] = test compound 20 ppm, after 48 hours, read-out: mortality % 48, without TFNA-AM
[7] = test compound 200 ppm, after 24 hours, read-out: mortality % 24, without TFNA-AM
[8] = test compound 200 ppm, after 48 hours, read-out: mortality % 48, without TFNA-AM
[9] = test compound 200 ppm, adult females
[10] = test compound 0.2 ppm plus 2 ppm TFNA-AM, after 24 hours
[11] = test compound 0.2 ppm plus 2 ppm TFNA-AM, after 48 hours
[12] = test compound 0.2 ppm plus 2 ppm TFNA-AM
[13] = test compound 2 ppm plus 2 ppm TFNA-AM, after 48 hours
[14] = test compound 2 ppm plus 2 ppm TFNA-AM
[15] = test compound 20 ppm plus 2 ppm TFNA-AM, after 24 hours
[16] = test compound 20 ppm plus 2 ppm TFNA-AM, after 48 hours
[17] = test compound 20 ppm plus 2 ppm TFNA-AM
[18] = test compound 200 ppm plus 2 ppm TFNA-AM, after 24 hours
[19] = test compound 200 ppm plus 2 ppm TFNA-AM, after 48 hours
[20] = test compound 200 ppm plus 2 ppm TFNA-AM
[21] = test compound 2 ppm plus 2 ppm TFNA-AM, after 24 hours

| SMILES | mortality at 0.2 ppm [1] [%] | mortality at 0.2 ppm [2] [%] | pest or weed control at 0.2 ppm (test compound 0.2 ppm) [%] | mortality at 2 ppm [3] [%] | mortality at 2 ppm [4] [%] | pest or weed control at 2 ppm (test compound 2 ppm) [%] | mortality at 20 ppm [5] [%] | mortality at 20 ppm [6] [%] | pest or weed control at 20 ppm (test compound 20 ppm) [%] | mortality % 24, with TFNA-AM [10] [%] | mortality % 48, with TFNA-AM [11] [%] | Knock Down, with TFNA-AM [12] [%] | mortality % 48, with TFNA-AM [13] [%] | Knock Down, with TFNA-AM [14] [%] | mortality % 24, with TFNA-AM [15] [%] | mortality % 48, with TFNA-AM [16] [%] | Knock Down, with TFNA-AM [17] [%] | mortality % 24, with TFNA-AM [18] [%] | mortality % 48, with TFNA-AM [19] [%] | Knock Down, with TFNA-AM [20] [%] | further results |
| --- | --- | --- | --- | --- | --- | --- | --- | --- | --- | --- | --- | --- | --- | --- | --- | --- | --- | --- | --- | --- | --- |
| CO/C=C(/C(=O)OC)c1ccccc1COc1cc(C(F)(F)F)nc(OC(C)C)n1 [Fluacrypyrim] | 0 | 0 | 0 | 0 | 0 | 0 | 0 | 0 | 0 | 60 | 40 | 100 | 100 | 100 | 100 | 100 | 100 | 100 | 100 | 100 | mortality at 200 ppm [7]: 20%; mortality at 200 ppm [8]: 80%; pest or weed control at 200 ppm [9]: 0% |
| O=[N+]([O-])c1cc(C(F)(F)F)c(Cl)c([N+](=O)[O-])c1Nc1ncc(C(F)(F)F)cc1Cl [Fluazinam] | 0 | 0 | 0 | 0 | 0 | 0 | 70 | 80 | 20 | 30 | 20 | 100 | 20 | 100 | 100 | 100 | 100 | 100 | 100 | 100 | mortality at 200 ppm [7]: 90%; mortality at 200 ppm [8]: 90%; pest or weed control at 200 ppm [9]: 20%; mortality % 24, with TFNA-AM [21]: 30% |
| Cc1cc(C(F)(C(F)(F)F)C(F)(F)F)ccc1NC(=O)c1cccc(I)c1C(=O)NC(C)(C)CS(C)(=O)=O [Flubendiamide] | 0 | 0 | 0 | 0 | 0 | 0 | 0 | 0 | 0 | 80 | 40 | 100 | 40 | 100 | 80 | 40 | 100 | 60 | 40 | 100 | mortality at 200 ppm [7]: 0%; mortality at 200 ppm [8]: 0%; pest or weed control at 200 ppm [9]: 0%; mortality % 24, with TFNA-AM [21]: 80% |
| O=C1C=C(N(Cc2ccc(Cl)nc2)CC(F)F)CO1 [Flupyradifurone] |  |  |  |  |  |  |  |  |  | 10 | 0 | 100 | 20 | 100 | 50 | 60 | 100 | 70 | 90 | 100 | mortality % 24, without TFNA-AM (test compound 0.2 ppm, after 24 hours): 0%; mortality % 48, without TFNA-AM (test compound 0.2 ppm, after 48 hours): 0%; Knock Down, without TFNA-AM (test compound 0.2 ppm): 0%; mortality % 24, with TFNA-AM [21]: 20%; mortality % 24, without TFNA-AM (test compound 2 ppm, after 24 hours): 0%; mortality % 48, without TFNA-AM (test compound 2 ppm, after 48 hours): 0%; Knock Down, without TFNA-AM (test compound 2 ppm): 0%; mortality % 24, without TFNA-AM (test compound 20 ppm, after 24 hours): 0%; mortality % 48, without TFNA-AM (test compound 20 ppm, after 48 hours): 10%; Knock Down, without TFNA-AM (test compound 20 ppm): 0%; mortality % 24, without TFNA-AM (test compound 200 ppm, after 24 hours): 20%; mortality % 48, without TFNA-AM (test compound 200 ppm, after 48 hours): 30%; Knock Down, without TFNA-AM [9]: 0% |
